The text below walks through data of ChEMBL document CHEMBL1159384, “Antidiabetic dimeric guianolides and a lignan glycoside from Lactuca indica” (2003).

The subject of this assay is Rattus norvegicus. The assay is described as follows: Antidiabetic activity in STZ-diabetic rat assessed as lowering of plasma glucose level at 1 mM/kg. The class given is functional.

In the case of `C=C1C(=O)O[C@@H]2[C@H]3C(COC(=O)Cc4ccc(O)cc4)=CC(=O)C3=C(C)C[C@H](O[C@H]3CC(C)=C4C(=O)C=C(COC(=O)Cc5ccc(O)cc5)[C@@H]4[C@H]4OC(=O)[C@@H](C)[C@@H]43)[C@@H]12` [LACTUCAIN C], the Activity is -22.74%. Regarding `COc1cc([C@H]2O[C@@H](O)[C@@H]3[C@H]2[C@H](O[C@@H]2O[C@H](CO)[C@@H](O)[C@H](O)[C@H]2O)O[C@@H]3c2ccc(O)c(OC)c2)ccc1O` [LACTUCASIDE], the Activity is reported as -17.95%.
